# Assay results taken from ChEMBL document CHEMBL3784929, “Pharmacokinetics of valproic acid in volunteers after a single dose study” (Biopharm Drug Dispos, 1985).
# Tests used:
# Format in all cases: ADME, organism-based
# [1] = Total serum concentration in healthy human (6 volunteers) at 1 g, po administered as single dose measured after 14 hrs by gas liquid chromatography; settings: read-out: Drug uptake
# [2] = Total serum concentration in healthy human (6 volunteers) at 1 g, po administered as single dose measured after 3 hrs by gas liquid chromatography; settings: read-out: Drug uptake
# [3] = Fraction unbound in healthy human (6 volunteers) serum at 1 g, po administered as single dose measured after 4 hrs
# [4] = Fraction unbound in healthy human (6 volunteers) serum at 1 g, po administered as single dose measured after 12 hrs
# Homo sapiens = assay: fAUC in healthy human (6 volunteers) at 1 g, po administered as single dose by gas liquid chromatography; settings: in vivo
# [5] = Fraction unbound in healthy human (6 volunteers) serum at 1 g, po administered as single dose
# Serum [6] = assay: Unbound serum concentration in healthy human (6 volunteers) at 1 g, po administered as single dose measured after 10 hrs by enzyme multiple immunotechnique; settings: in vivo
# Serum [7] = assay: Unbound serum concentration in healthy human (6 volunteers) at 1 g, po administered as single dose measured after 39 hrs by enzyme multiple immunotechnique; settings: in vivo
# [8] = Fraction unbound in healthy human (6 volunteers) serum at 1 g, po administered as single dose measured after 8 hrs
# Serum [9] = assay: Unbound serum concentration in healthy human (6 volunteers) at 1 g, po administered as single dose measured after 0.66 hrs by enzyme multiple immunotechnique; settings: in vivo
# [10] = Fraction unbound in healthy human (6 volunteers) serum assessed as ratio of fAUC to total AUC at 1 g, po administered as single dose by gas liquid chromatography
# [11] = Fraction unbound in healthy human (6 volunteers) serum at 1 g, po administered as single dose measured after 10 hrs
# [12] = Total serum concentration in healthy human (6 volunteers) at 1 g, po administered as single dose measured after 1 hr by gas liquid chromatography; settings: read-out: Drug uptake
# [13] = Total serum concentration in healthy human (6 volunteers) at 1 g, po administered as single dose measured after 48 hrs by gas liquid chromatography; settings: read-out: Drug uptake
# [14] = Total serum concentration in healthy human (6 volunteers) at 1 g, po administered as single dose measured after 4 hrs by gas liquid chromatography; settings: read-out: Drug uptake
# [15] = Total serum concentration in healthy human (6 volunteers) at 1 g, po administered as single dose measured after 8 hrs by gas liquid chromatography; settings: read-out: Drug uptake
# Serum [16] = assay: Unbound serum concentration in healthy human (6 volunteers) at 1 g, po administered as single dose measured after 8 hrs by enzyme multiple immunotechnique; settings: in vivo
# [17] = Tmax in healthy human (6 volunteers) at 1 g, po administered as single dose by gas liquid chromatography; settings: in vivo
# [18] = Total serum concentration in healthy human (6 volunteers) at 1 g, po administered as single dose measured after 30 hrs by gas liquid chromatography; settings: read-out: Drug uptake
# Serum [19] = assay: Unbound serum concentration in healthy human (6 volunteers) at 1 g, po administered as single dose measured after 12 hrs by enzyme multiple immunotechnique; settings: in vivo
# Serum [20] = assay: Unbound serum concentration in healthy human (6 volunteers) at 1 g, po administered as single dose measured after 3 hrs by enzyme multiple immunotechnique; settings: in vivo
# Serum [21] = assay: Unbound serum concentration in healthy human (6 volunteers) at 1 g, po administered as single dose measured after 30 hrs by enzyme multiple immunotechnique; settings: in vivo
# [22] = Total serum concentration in healthy human (6 volunteers) at 1 g, po administered as single dose measured after 24 hrs by gas liquid chromatography; settings: read-out: Drug uptake
# [23] = Terminal half life in healthy human (6 volunteers) at 1 g, po administered as single dose by gas liquid chromatography; settings: in vivo, read-out: beta t1/2 (converted)
# [24] = Fraction unbound in healthy human (6 volunteers) serum at 1 g, po administered as single dose measured after 2 hrs
# [25] = Total serum concentration in healthy human (6 volunteers) at 1 g, po administered as single dose measured after 12 hrs by gas liquid chromatography; settings: read-out: Drug uptake
# [26] = Total AUC in healthy human (6 volunteers) at 1 g, po administered as single dose by gas liquid chromatography; design: dose 1 g, time AUCmax, route oral; settings: in vivo
# [27] = Fraction unbound in healthy human (6 volunteers) serum at 1 g, po administered as single dose measured after 5 hrs
# Serum [28] = assay: Unbound serum concentration in healthy human (6 volunteers) at 1 g, po administered as single dose measured after 48 hrs by enzyme multiple immunotechnique; settings: in vivo
# [29] = Total serum concentration in healthy human (6 volunteers) at 1 g, po administered as single dose measured after 0.66 hrs by gas liquid chromatography; settings: read-out: Drug uptake
# [30] = Total serum concentration in healthy human (6 volunteers) at 1 g, po administered as single dose measured after 2 hrs by gas liquid chromatography; settings: read-out: Drug uptake
# [31] = Total serum concentration in healthy human (6 volunteers) at 1 g, po administered as single dose measured after 5 hrs by gas liquid chromatography; settings: read-out: Drug uptake
# [32] = Fraction unbound in healthy human (6 volunteers) serum at 1 g, po administered as single dose measured after 0.33 hrs
# Serum [33] = assay: Unbound serum concentration in healthy human (6 volunteers) at 1 g, po administered as single dose measured after 6 hrs by enzyme multiple immunotechnique; settings: in vivo
# [34] = Drug metabolism in healthy human (6 volunteers) assessed as excretion of valproic acid glucuronide in urine at 1 g, po administered as single dose measured upto 48 hrs by gas liquid chromatography; settings: in vivo
# Serum [35] = assay: Unbound serum concentration in healthy human (6 volunteers) at 1 g, po administered as single dose measured after 0.33 hrs by enzyme multiple immunotechnique; settings: in vivo
# Serum [36] = assay: Unbound serum concentration in healthy human (6 volunteers) at 1 g, po administered as single dose measured after 1.5 hrs by enzyme multiple immunotechnique; settings: in vivo
# [37] = Total serum concentration in healthy human (6 volunteers) at 1 g, po administered as single dose measured after 0.33 hrs by gas liquid chromatography; settings: read-out: Drug uptake
# [38] = Total serum concentration in healthy human (6 volunteers) at 1 g, po administered as single dose measured after 6 hrs by gas liquid chromatography; settings: read-out: Drug uptake
# Serum [39] = assay: Unbound serum concentration in healthy human (6 volunteers) at 1 g, po administered as single dose measured after 24 hrs by enzyme multiple immunotechnique; settings: in vivo
# [40] = Fraction unbound in healthy human (6 volunteers) serum at 1 g, po administered as single dose measured after 6 hrs
# [41] = Total serum concentration in healthy human (6 volunteers) at 1 g, po administered as single dose measured after 1.5 hrs by gas liquid chromatography; settings: read-out: Drug uptake
# Serum [42] = assay: Unbound serum concentration in healthy human (6 volunteers) at 1 g, po administered as single dose measured after 14 hrs by enzyme multiple immunotechnique; settings: in vivo
# [43] = Total serum concentration in healthy human (6 volunteers) at 1 g, po administered as single dose measured after 39 hrs by gas liquid chromatography; settings: read-out: Drug uptake
# Serum [44] = assay: Unbound serum concentration in healthy human (6 volunteers) at 1 g, po administered as single dose measured after 5 hrs by enzyme multiple immunotechnique; settings: in vivo
# [45] = Fraction unbound in healthy human (6 volunteers) serum at 1 g, po administered as single dose measured after 1 hr
# Serum [46] = assay: Unbound serum concentration in healthy human (6 volunteers) at 1 g, po administered as single dose measured after 1 hr by enzyme multiple immunotechnique; settings: in vivo
# [47] = Cmax in healthy human (6 volunteers) at 1 g, po administered as single dose by gas liquid chromatography; design: dose 1 g, route oral; settings: in vivo
# [48] = Fraction unbound in healthy human (6 volunteers) serum at 1 g, po administered as single dose measured after 0.66 hrs
# [49] = Total serum concentration in healthy human (6 volunteers) at 1 g, po administered as single dose measured after 10 hrs by gas liquid chromatography; settings: read-out: Drug uptake
# [50] = Fraction unbound in healthy human (6 volunteers) serum at 1 g, po administered as single dose measured after 1.5 hrs
# Serum [51] = assay: Unbound serum concentration in healthy human (6 volunteers) at 1 g, po administered as single dose measured after 2 hrs by enzyme multiple immunotechnique; settings: in vivo
# [52] = Fraction unbound in healthy human (6 volunteers) serum at 1 g, po administered as single dose measured after 3 hrs
# [53] = Fraction unbound in healthy human (6 volunteers) serum at 1 g, po administered as single dose measured after 14 hrs
# Serum [54] = assay: Unbound serum concentration in healthy human (6 volunteers) at 1 g, po administered as single dose measured after 4 hrs by enzyme multiple immunotechnique; settings: in vivo
smiles,measurement,setting,value
CCCC(CCC)C(=O)[O-].[Na+] [VALPROATE SODIUM],concentration at 14 h,[1],47.5 µg/mL
same,concentration at 3 h,[2],96.3 µg/mL
same,fraction unbound at 4 h,[3],0.049
same,fraction unbound at 12 h,[4],0.037
same,fAUC,Homo sapiens,84.2 µg·h/mL
same,fraction unbound,[5],0.049
same,Drug uptake(free),Serum [6],2.7 µg/mL
same,Drug uptake(free),Serum [7],0 µg/mL
same,fraction unbound at 8 h,[8],0.059
same,Drug uptake(free),Serum [9],4.9 µg/mL
same,fraction unbound,[10],0.041
same,fraction unbound at 10 h,[11],0.046
same,concentration at 1 h,[12],105 µg/mL
same,concentration at 48 h,[13],10.6 µg/mL
same,concentration at 4 h,[14],92.9 µg/mL
same,concentration at 8 h,[15],66.9 µg/mL
same,Drug uptake(free),Serum [16],3.9 µg/mL
same,Tmax,[17],2 h
same,concentration at 30 h,[18],23.4 µg/mL
same,Drug uptake(free),Serum [19],1.9 µg/mL
same,Drug uptake(free),Serum [20],4.7 µg/mL
same,Drug uptake(free),Serum [21],0 µg/mL
same,concentration at 24 h,[22],33.3 µg/mL
same,half-life,[23],14.9 h
same,fraction unbound at 2 h,[24],0.058
same,concentration at 12 h,[25],54.1 µg/mL
same,AUC,[26],2120 µg·h/mL
same,fraction unbound at 5 h,[27],0.04
same,Drug uptake(free),Serum [28],0 µg/mL
same,concentration at 0.66 h,[29],95.2 µg/mL
same,concentration at 2 h,[30],105 µg/mL
same,concentration at 5 h,[31],88.6 µg/mL
same,fraction unbound at 0.33 h,[32],0.04
same,Drug uptake(free),Serum [33],3.8 µg/mL
same,Drug metabolism,[34],176.6 mg
same,Drug uptake(free),Serum [35],2.1 µg/mL
same,Drug uptake(free),Serum [36],4.3 µg/mL
same,concentration at 0.33 h,[37],52.3 µg/mL
same,concentration at 6 h,[38],85.9 µg/mL
same,Drug uptake(free),Serum [39],0 µg/mL
same,fraction unbound at 6 h,[40],0.044
same,concentration at 1.5 h,[41],103 µg/mL
same,Drug uptake(free),Serum [42],1.2 µg/mL
same,concentration at 39 h,[43],15.3 µg/mL
same,Drug uptake(free),Serum [44],3.6 µg/mL
same,fraction unbound at 1 h,[45],0.051
same,Drug uptake(free),Serum [46],5.3 µg/mL
same,Cmax,[47],108 µg/mL
same,fraction unbound at 0.66 h,[48],0.052
same,concentration at 10 h,[49],61.4 µg/mL
same,fraction unbound at 1.5 h,[50],0.042
same,Drug uptake(free),Serum [51],6.1 µg/mL
same,fraction unbound at 3 h,[52],0.049
same,fraction unbound at 14 h,[53],0.026
same,Drug uptake(free),Serum [54],4.6 µg/mL
